Assay results reported in patent US10131681B2, “Aminophosphinic derivatives that can be used in the treatment of pain” (PHARMALEADS, priority 2008, dated 2018).

Legend:
[1] = tested on: OF1 male mice; assay: Plantar test, thermal hyperalgesia after partial ligation of the sciatic nerve; type: in vivo; conditions: 50 mg/kg oral
Experimental: (§1) This test was described in detail by A. B. Malmberg and A. I. Basbaum, Partial Sciatic nerve injury in the mouse as a model of neuropathic pain: behavioural and neuroanatomical correlates. Pain, (1998) 76, 215-222.
(§2) It was performed on OF1 male mice (Charles River, n=39), weighing 18 to 20 g, by partial ligation of the sciatic nerve on the ipsilateral side. The animals are tested over a period of 3 to 26 days after the operation.
The hyperalgesia was measured according to the method described by K. Hargreaves et al., A new sensitive method for measuring thermal nociception in cutaneous hyperalgesia, Pain (1988), 32, 77-88, using the “Plantar test” device (Bioseb, France) as the heat source. The intensity of the nociceptive stimulus is calibrated at 8-10 s with an automatic cut-off time of 20 seconds. The mean heat-induced paw withdrawal was measured on the ipsilateral (damaged nerve) and contralateral (intact nerve) paws. Each measurement is made 3 times on each paw.

[2] = tested on: OF1 male mice; assay: Von Frey test, mechanical allodynia after partial ligation of the sciatic nerve; type: in vivo
Experimental: as §1, §2
The mechanical allodynia is measured as described by S. R. Chaplan et al., Quantitative assessment of tactile allodynia in the rat paw, J. Neurosci. Meth. (1994), 53, 55-63. The ipsilateral (lesion) and contralateral (control) paws are tested as above, the mechanical anti-allodynia effect being measured using the Von Frey method (Malmerg A. B. and Basbaum A. I., 1998, Pain, 76, 215-222) with filaments of increasing size likewise applying an increasing pressure.

[3] = tested on: OF1 male mice; assay: Formalin test (phase I), paw licking after oral administration; type: in vivo
Experimental: A/ Formalin Test (Phase I)
The molecules were studied at one time (90 min) for comparative tests and at two times, 90 and 150 minutes, so as to observe the period of action thereof.
The animals (OF1 male mice) were obtained from the Charles River breeding centre (France) and weighed […] at the start of the experiment. The weight of each mouse is taken into account for the administration of the product.
The test is based on the protocol described by S. HUNSKAAR et al., Formalin test in mice, a useful technique for evaluating mild analgesics, J. Neurosci. Methods (1995), 14, 69-75. The early part of the test ([…] after injecting formalin), is considered to reflect […], which is under study.
The mice (n=8) are placed individually in a transparent container (50×25 cm^2) and are acclimatised to this environment for 20 minutes. […] Each mouse is then immediately returned to the test container and pain (nociceptive) responses are measured for 5 minutes (early phase). Only the number of times the paw is licked is counted. […]
The analgesic action of the product is measured by the decline in the number of times the injured paw is licked, compared to the number of times the animal receiving the vehicle only licks its paw. The total (discontinuous) licking time, expressed in seconds for each mouse, is counted for […]. […]

[4] = Stability in solution of a prior art pro-drug in a parenteral vehicle, followed by HPLC; type: physicochemical; conditions: ethanol/cremophor/H2O mixture (1:1:8)
Experimental: The study in solution of a compound according to the prior art was conducted as follows:
The compound according to the prior art is placed in solution in various mixtures used for parenteral administration, the solution subsequently being followed by HPLC (Kromasil C18 4.5*250 mm column, 50% CH3CN (0.1% TFA)/50% H2O (0.1% TFA)) to determine the composition of the solution. In any case, the formation of both products, free phosphonic acid (active compound) and the transfer product, is observed over time as illustrated in the diagram below: […]

CC(OC(=O)N[C@@H](C)P(=O)(O)C[C@@H](Cc1ccc(-c2ccccc2)cc1)C(=O)N[C@@H](C)C(=O)OCc1ccccc1)OC(=O)C(C)C (some centres unmarked) [Example 3, 2-(2-biphenyl-4-ylmethyl-3-{hydroxy-[1-(1-isobutyryloxy-ethoxycarbonylamino)-ethyl]-phosphinoyl}-propionylamino)-propionic acid benzyl ester]
time of peak anti-hyperalgesia effect [1]: 90 min
paw withdrawal, mean of contralateral paws ([1]; 90 min, 14 days after surgery, contralateral paw): 9.4 s
reduction in thermal hyperalgesia ([1]; period 45-120 min, ipsilateral paw): 65-100%
time of peak anti-allodynia effect ([2]; 50 mg/kg oral): 60 min
long-term anti-allodynia effect ([2]; 50 mg/kg oral, 45-120 min): significant
anti-allodynia effect at peak, % of the peak response (untreated control) ([2]; 50 mg/kg oral, 60 min): 75%

CC(OC(=O)N[C@@H](C)P(=O)(O)C[C@@H](Cc1ccc(-c2ccccc2)cc1)C(=O)N[C@@H](C)C(=O)O)OC(=O)C(C)C (some centres unmarked) [Example 4, 2-(2-biphenyl-4-ylmethyl-3-{hydroxy-[1-(1-isobutyryloxy-ethyloxycarbonylamino)-ethyl]-phosphinoyl}-propionylamino)-propionic acid]
anti-allodynia effect used alone ([2]; 10 mg/kg oral, 60 min): inactive

CCOC(=O)OC(C)OC(=O)[C@H](C)NC(=O)[C@H](Cc1ccc(-c2ccccc2)cc1)CP(=O)(O)[C@H](C)NC(=O)OC(C)OC(=O)C(C)C (some centres unmarked) [Example 8, 2-(2-biphenyl-4-ylmethyl-3-{hydroxy-[1-(1-isobutyryloxy-ethoxycarbonylamino)-ethyl]-phosphinoyl}-propionylamino)-propionic acid 1-ethoxycarbonyloxyethyl ester]
analgesic activity at 90 minutes ([3]; 50 mg/kg per os): very significant analgesic activity

NCC1(CC(=O)O)CCCCC1 [gabapentin, reference compound]
anti-allodynia effect used alone ([2]; 30 mg/kg oral, 60 min): inactive

CCOC(=O)[C@H](C)NC(=O)[C@H](Cc1ccc(-c2ccccc2)cc1)CP(=O)(OC(C)OC(=O)C(C)C)[C@H](C)N (some centres unmarked) [prior art compound]
% initial compound ([4]; 0 hrs after solubilisation): 90.5%
% initial compound ([4]; 3 hrs after solubilisation): 82.0%
% initial compound ([4]; 6 hrs after solubilisation): 75.7%
% initial compound ([4]; 96 hrs after solubilisation): 25.1%

CCOC(=O)OC(C)OC(=O)[C@H](C)NC(=O)[C@H](Cc1ccc(-c2ccccc2)cc1)CP(=O)(O)[C@H](C)N.O=CO (some centres unmarked) [reference molecule, reference compound]
analgesic activity at 90 minutes ([3]; 100 mg/kg per os): no activity
